# Laboratory results as given in US10335365B2, “Bladder cancer specific ligand peptides” (The Regents of the University of California, priority 2009, dated 2019).
# Positions of bridges follow the written chain, without caps; N, C: chain ends. Non-standard residues stand in square brackets, D forms with d. No end group written: not given here.
# Tests used:
# [1] = tested on: peripheral blood mononuclear cells (PBMC); assay: Whole cell bead binding assay, PBMC; design: species or system human; conditions: peptide on beads
# Description: (§1) Four bladder cancer cell lines including 5637 (HTB-9), SCaBER, TCCSUP (HTB-5), and T24 (HTB-4) were purchased from the American Type Culture Collection (Manassas, Va.). The isolation, characterization and maintenance of normal urothelial cells was previously described in detail (Bagai, et al., J Biol Chem, (2002) 277: 23828-23837). Normal peripheral blood mononuclear cells were prepared by using the Ficoll-Paque gradient method from peripheral blood of healthy donors. Bladder cancer tissue obtained from cystectomy was cut into pieces, digested with collagenase at 37° C. for 1-2 hours per the manufacturer's protocol, and filtered through a 40-μm strainer to make single cell suspension. Tumor cells were then isolated with Ficoll-Paque gradient method (800 g, 30 min at 4° C.). Informed consent was obtained from each patient or healthy donor before specimens were collected.
# The beads were washed extensively with double-distilled water and phosphate-buffered saline (PBS) before screening. Bladder cancer cells and normal urothelial cells were detached from culture dishes with trypsin/EDTA or a Detach kit (PromoCell, Heidelberg, Germany), washed with their corresponding culture medium, resuspended at 10^6 cells/ml and incubated with OBOC beads in Petri dishes in a humidified CO2 incubator at 37° C. with shaking (60 rpm). […]
# [2] = tested on: K9TCC cells; assay: Whole cell binding assay of Example 2, canine TCC cells; conditions: PLZ4 beads, 10^6 cells/ml
# Description: This experiment was repeated 3 times for cell lines. […] 5637 human bladder cancer cell line; b. […] The average diameter of the beads is 90 μm. […] This experiment was repeated for 3 times. (200×)
# To determine the binding of PLZ4 to canine TCC cell lines, whole cell binding assay was performed. PLZ4 was synthesized on TentaGel S NH2 resin beads (Rapp Polymere Gmbh, Germany) (Pegram, et al., J Clin Oncol (1998) 16:2659-2671), and incubated with single suspensions of five different canine carcinoma cell lines including K9TCC-PU, K9TCC-PU-AxA, K9TCC-PU-In, K9TCC-PU-AxC, and K9TCC-PU-Nk (kindly provided by Deborah Knapp at Purdue University, West Lafayette, Ind., USA) at 10^6 cells/ml. The negative control was normal urothelial cells obtained from dogs that were euthanized due to non-bladder-related disorders. Human bladder cancer cell line, 5637 were served as the positive control. If PLZ4 bound to cells in suspension, then the bead surface was covered with cells. Over 95% of the bead surface was covered with 5637 and K9TCC cells (FIG. 7A-a and b, respectively).
# [3] = tested on: primary bladder cancer cells from patients; assay: Whole cell bead binding assay, primary bladder cancer cells from patients; design: species or system human; conditions: beads coated with PLZ4; fresh bladder cancer specimens
# Description: as §1
# The beads were washed extensively with double-distilled water and phosphate-buffered saline (PBS) before screening. […]
# The cell surface molecules on established cell lines in culture may not be the same as those molecules on primary bladder cancer cells. It was assessed if PLZ4 could bind to bladder cancer cells from patients. […]
# [4] = tested on: K9TCC-PU; assay: Binding affinity by PLZ4-biotin / avidin-HRP on fixed K9TCC-PU cells; design: species or system canine; conditions: restated in b239 without cell line, read-out: Kd50
# Description: FIG. 8A-B. Binding affinity and biological effects of PLZ4 against canine TCC cell lines. A. Binding affinity of PLZ4 against K9TCC-PU and K9TCC-PU-In. Twenty thousands of K9TCC-PU and K9TCC-PU-In were seeded in 96 well plates. After culture for 24 hours, cells were fixed and incubated with different concentrations of PLZ4-biotin for 1.5 hours following avidin-HRP for another 1 hour. Cells treated with avidin-HRP only were served as background control. The color was developed using TMB substrate and read by ELISA readers. The experiment was performed in triplicates and repeated for 3 times. The mean value of the 3 experiments were shown. B. Biological effects of PLZ4 on canine TCC cell lines. Ten thousand K9TCC-PU-In and K9TCC-PU cells were seeded in the 96 well plates and treated with increasing concentrations of PLZ4 or PBS for 2 days. The cell proliferation assay was assessed by WST-8 assay per manufacturer's protocol. Cells treated with PBS were used as 100% control. Each group was performed in triplicate, repeated for 3 times. Mean values at each concentration are presented.
# To further quantify the binding affinity, K9TCC-PU and K9TCC-PU-In cells were seeded in 96 well plates, fixed, and incubated with increasing concentrations of PLZ4-biotin followed by avidin-HRP. […]
substance,measurement,setting,value
"cQDGRMGFc ([dC]QDGRMGF[dC]; disulfide 1-9 (inferred)) [PLZ4, bladder cancer-specific ligand peptide]",binding to peripheral blood mononuclear cells,[1],did not bind
same,bead surface covered with cells,[2],Over 95%
same,binding to primary bladder cancer cells from patients,[3],could bind to cells from all 5 fresh bladder cancer specimens
same,Kd,[4],21.3 µM
